Paper PMC6047530 (Journal of medicinal chemistry, 2018)
“Also recorded” adds a separate entry of the source.

Columns and labels:
[1] = system: OVCAR8 (BRCA1-methylated) cell line; assay: Cytotoxicity screen in OVCAR8 cells at 10 μM; format: cell-based
MEF PARP-1 KO−/− cells = assay: Cell viability assay in MEF PARP-1 KO−/− cells; format: cell-based, mouse; details: for EC50: Mus musculus, read-out: PARP-1−/− EC50; for cell death, in words: MEF PARP-1 KO−/−
PARP-1 = PARP-1 (Homo sapiens, UniProt P09874); assay: PARP-1 radioligand binding; details: 10c vs 10a; 15b vs 15a
Chain of PARP-1 (P09874 whole entry): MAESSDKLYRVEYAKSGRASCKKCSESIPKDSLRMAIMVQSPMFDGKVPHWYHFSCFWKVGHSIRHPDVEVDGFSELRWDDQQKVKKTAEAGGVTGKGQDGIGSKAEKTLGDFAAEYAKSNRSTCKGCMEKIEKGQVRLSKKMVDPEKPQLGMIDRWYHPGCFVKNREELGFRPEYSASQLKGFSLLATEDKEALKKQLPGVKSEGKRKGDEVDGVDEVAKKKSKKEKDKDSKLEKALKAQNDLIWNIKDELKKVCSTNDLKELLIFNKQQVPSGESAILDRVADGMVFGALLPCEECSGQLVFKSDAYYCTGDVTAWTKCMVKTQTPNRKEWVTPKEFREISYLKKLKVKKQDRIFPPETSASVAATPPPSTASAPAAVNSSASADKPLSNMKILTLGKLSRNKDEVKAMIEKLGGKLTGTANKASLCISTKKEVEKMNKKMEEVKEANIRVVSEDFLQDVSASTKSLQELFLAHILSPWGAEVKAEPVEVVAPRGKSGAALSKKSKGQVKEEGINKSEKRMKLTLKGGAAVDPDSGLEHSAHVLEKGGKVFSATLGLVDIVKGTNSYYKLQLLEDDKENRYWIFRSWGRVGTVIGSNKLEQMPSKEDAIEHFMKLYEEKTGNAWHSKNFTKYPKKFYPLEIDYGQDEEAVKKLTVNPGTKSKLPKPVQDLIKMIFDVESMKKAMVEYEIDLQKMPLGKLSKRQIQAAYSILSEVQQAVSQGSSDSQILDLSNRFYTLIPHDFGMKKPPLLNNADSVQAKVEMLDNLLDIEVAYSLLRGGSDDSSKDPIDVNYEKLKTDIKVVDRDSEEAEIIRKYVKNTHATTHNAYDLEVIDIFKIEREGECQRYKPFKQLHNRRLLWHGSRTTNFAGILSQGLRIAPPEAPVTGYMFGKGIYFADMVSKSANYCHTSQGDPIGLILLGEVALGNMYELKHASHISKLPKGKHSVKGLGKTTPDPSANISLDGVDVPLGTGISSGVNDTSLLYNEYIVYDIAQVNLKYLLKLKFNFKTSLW

MEF PARP-2 KO−/− cells = assay: Cell viability assay in MEF PARP-2 KO−/− cells; format: cell-based; details: Mus musculus, read-out: PARP-2−/− EC50
MEF WT cells = assay: Cell viability assay in MEF WT cells; format: cell-based, mouse; details: for cell death, in words: MEF WT; for EC50: Mus musculus, read-out: WT EC50
UWB1.289 cells = assay: Cell viability assay in UWB1.289; format: cell-based; details: UWB1.289 isogenic cell lines
[2] = system: γH2AX foci in OVCAR8 cells; assay: Immunofluorescent cell microscopy of γH2AX foci; format: cell-based; details: 0.01-10 μM, 24 hrs
[3] = system: poly(ADP-ribose) (PAR), biochemical product of PARP-1; assay: Western blot analysis of PAR expression in OVCAR8 cells; format: cell-based; details: OVCAR8 cells treated 6 h
other PARPs = assay: PARPs enzyme inhibition panel at 10 μM; format: biochemical

| SMILES | EC50 (MEF PARP-1 KO−/− cells) [µM] | EC50 (MEF WT cells) [µM] | further results |
| --- | --- | --- | --- |
| O=C(c1cc(Cc2n[nH]c(=O)c3ccccc23)ccc1F)N1CC2(CCC2)C1 [Compound 10a, 4-(4-Fluoro-3-(2-azaspiro[3.3]heptane-2-carbonyl)benzyl)phthalazin-1(2H)-one] | > 100 |  | cytotoxicity / anti-proliferative activity (in words) [1]: poor cytotoxic properties |
| O=C(c1cc(Cc2n[nH]c(=O)c3ccccc23)ccc1F)N1CC2(COC2)C1 [Compound 10b, 4-(4-Fluoro-3-(2-oxa-6-azaspiro[3.3]heptane-6-carbonyl)benzyl)phthalazin-1(2H)-one] | > 100 |  |  |
| CC(C)(C)OC(=O)N1CC2(C1)CN(C(=O)c1cc(Cc3n[nH]c(=O)c4ccccc34)ccc1F)C2 [Compound 10c, Tert-butyl 6-(2-fluoro-5-((4-oxo-3,4-dihydrophthalazin-1-yl)methyl)benzoyl)-2,6-diazaspiro[3.3]heptane-2-carboxylate] | > 100 |  | fold lower PARP-1 affinity compared to methylene congener (PARP-1): ~ 16 fold |
| O=C(c1cc(Cc2n[nH]c(=O)c3ccccc23)ccc1F)N1CC2(CNC2)C1 [Compound 10d, 4-(4-Fluoro-3-(2,6-diazaspiro[3.3]heptane-2-carbonyl)benzyl)phthalazin-1(2H)-one] | > 100 | > 100 | EC50 (MEF PARP-2 KO−/− cells): > 100 µM; cell death, in words (MEF WT cells): no cell death was observed; cell death, in words (MEF PARP-1 KO−/− cells): no cell death was observed |
| O=C(c1cc(Cc2n[nH]c(=O)c3ccccc23)ccc1F)N1CC2(C1)CN(C(=O)C1CC1)C2 [Compound 10e, 4-(3-(6-(Cyclopropanecarbonyl)-2,6-diazaspiro[3.3]heptane-2-carbonyl)-4-fluorobenzyl)phthalazin-1(2H)-one] | > 100 | > 100 | cell death, in words (MEF WT cells): no measurable cell death; cytotoxic concentration (EC50) relative to olaparib (UWB1.289 cells): approximately 7 fold; DNA damage (γ-H2AX foci), in words [2]: did not induce DNA damage at similar drug concentrations as olaparib; also recorded: unable to induce DNA damage at concentrations as high as 10 μM; inhibition of PARP activity (PAR synthesis), in words [3]: inhibit PARP activity in a manner similar to olaparib; cell death, in words (MEF PARP-1 KO−/− cells): no measurable cell death; off-target enzymatic inhibition of other PARPs, in words (other PARPs): minimal off-target activity; also recorded: less enzymatic inhibition with most other PARPs |
| O=C(c1cc(Cc2n[nH]c(=O)c3ccccc23)ccc1F)N1CCC12CCC2 [Compound 11a, 4-(4-Fluoro-3-(1-azaspiro[3.3]heptane-1-carbonyl)benzyl)phthalazin-1(2H)-one] | > 100 |  |  |
| CC(C)(C)OC(=O)N1CC2(CCN2C(=O)c2cc(Cc3n[nH]c(=O)c4ccccc34)ccc2F)C1 [Compound 11b, Tert-butyl 1-(2-fluoro-5-((4-oxo-3,4-dihydrophthalazin-1-yl)methyl)benzoyl)-1,6-diazaspiro[3.3]heptane-6-carboxylate] | > 100 |  |  |
| O=C(c1cc(Cc2n[nH]c(=O)c3ccccc23)ccc1F)N1CCC12CNC2 [Compound 11c, 4-(4-Fluoro-3-(1,6-diazaspiro[3.3]heptane-1-carbonyl)benzyl)phthalazin-1(2H)-one] | > 100 | > 100 | EC50 (MEF PARP-2 KO−/− cells): > 100 µM |
| O=C(C1CC1)N1CC2(CCN2C(=O)c2cc(Cc3n[nH]c(=O)c4ccccc34)ccc2F)C1 [Compound 11d, 4-(3-(6-(Cyclopropanecarbonyl)-1,6-diazaspiro[3.3]heptane-1-carbonyl)-4-fluorobenzyl)phthalazin-1(2H)-one] | > 100 |  |  |
| O=C(c1cc(Cc2n[nH]c(=O)c3ccccc23)ccc1F)N1CC2(CCCCC2)C1 [Compound 12a, 4-(4-Fluoro-3-(2-azaspiro[3.5]nonane-2-carbonyl)benzyl)phthalazin-1(2H)-one] |  |  | cytotoxicity / anti-proliferative activity (in words) [1]: poor cytotoxic properties |
| O=C(c1cc(Cc2n[nH]c(=O)c3ccccc23)ccc1F)N1CC2(CCNCC2)C1 [Compound 12c, 4-(4-Fluoro-3-(2,7-diazaspiro[3.5]nonane-2-carbonyl)benzyl)phthalazin-1(2H)-one] | > 100 | > 100 |  |
| O=C(c1cc(Cc2n[nH]c(=O)c3ccccc23)ccc1F)N1CC2(CCN(C(=O)C3CC3)CC2)C1 [Compound 12d, 4-(3-(7-(Cyclopropanecarbonyl)-2,7-diazaspiro[3.5]nonane-2-carbonyl)-4-fluorobenzyl)phthalazin-1(2H)-one] | > 100 |  |  |
| O=C(c1cc(Cc2n[nH]c(=O)c3ccccc23)ccc1F)N1CCC12CCCCC2 [Compound 13a, 4-(4-Fluoro-3-(1-azaspiro[3.5]nonane-1-carbonyl)benzyl)phthalazin-1(2H)-one] | > 100 |  |  |
| CC(C)(C)OC(=O)N1CCC2(CC1)CCN2C(=O)c1cc(Cc2n[nH]c(=O)c3ccccc23)ccc1F [Compound 13b, Tert-butyl 1-(2-fluoro-5-((4-oxo-3,4-dihydrophthalazin-1-yl)methyl)benzoyl)-1,7-diazaspiro[3.5]nonane-7-carboxylate] | > 100 |  |  |
| O=C(c1cc(Cc2n[nH]c(=O)c3ccccc23)ccc1F)N1CCC12CCNCC2 [Compound 13c, 4-(4-Fluoro-3-(1,7-diazaspiro[3.5]nonane-1-carbonyl)benzyl)phthalazin-1(2H)-one] | > 100 | > 100 |  |
| O=C(C1CC1)N1CCC2(CC1)CCN2C(=O)c1cc(Cc2n[nH]c(=O)c3ccccc23)ccc1F [Compound 13d, 4-(3-(7-(Cyclopropanecarbonyl)-1,7-diazaspiro[3.5]nonane-1-carbonyl)-4-fluorobenzyl)phthalazin-1(2H)-one] | > 100 |  |  |
| O=C(c1cc(Cc2n[nH]c(=O)c3ccccc23)ccc1F)N1CCC2(CCCC2)C1 [Compound 15a, 4-(4-Fluoro-3-(2-azaspiro[4.4]nonane-2-carbonyl)benzyl)phthalazin-1(2H)-one] | > 100 |  |  |
| CC(C)(C)OC(=O)N1CCC2(CCN(C(=O)c3cc(Cc4n[nH]c(=O)c5ccccc45)ccc3F)C2)C1 (centres unmarked) [Compound 15b, Tert-butyl 7-(2-fluoro-5-((4-oxo-3,4-dihydrophthalazin-1-yl)methyl)benzoyl)-2,7-diazaspiro[4.4]nonane-2-carboxylate] |  |  | DNA damage (γ-H2AX foci), in words [2]: induced DNA damage at micromolar concentrations; also recorded: induced DNA damage in a dose dependent manner; fold lower PARP-1 affinity compared to methylene congener (PARP-1): ~ 85 fold; inhibition of PARP activity (PAR synthesis), in words [3]: inhibit PARP activity in a manner similar to olaparib |
| O=C(c1cc(Cc2n[nH]c(=O)c3ccccc23)ccc1F)N1CCC2(CCNC2)C1 (centres unmarked) [Compound 15c, 4-(4-Fluoro-3-(2,7-diazaspiro[4.4]nonane-2-carbonyl)benzyl)phthalazin-1(2H)-one] | > 100 | > 100 |  |
| O=C(c1cc(Cc2n[nH]c(=O)c3ccccc23)ccc1F)N1CCC2(CCN(C(=O)C3CC3)C2)C1 (centres unmarked) [Compound 15d, 4-(3-(7-(Cyclopropanecarbonyl)-2,7-dizaspiro[4.4]nonane-2-carbonyl)-4-fluorobenzyl)phthalazin-1(2H)-one] | > 100 | > 100 |  |
| O=C(c1cc(Cc2n[nH]c(=O)c3ccccc23)ccc1F)N1CCC2(CCNCC2)C1 [Compound 16c, 4-(4-Fluoro-3-(2,8-diazaspiro[4.5]decane-2-carbonyl)benzyl)phthalazin-1(2H)-one] | > 100 | > 100 | EC50 (MEF PARP-2 KO−/− cells): > 100 µM |
| O=C(c1cc(Cc2n[nH]c(=O)c3ccccc23)ccc1F)N1CCC2(CCN(C(=O)C3CC3)CC2)C1 [Compound 16d, 4-(3-(8-(Cyclopropanecarbonyl)-2,8-diazaspiro[4.5]decane-2-carbonyl)-4-fluorobenzyl)phthalazin-1(2H)-one] | > 100 |  |  |
| O=C(c1cc(Cc2n[nH]c(=O)c3ccccc23)ccc1F)N1CCC2(CCCCC2)CC1 [Compound 17a, 4-(4-Fluoro-3-(3-azaspiro[5.5]undecane-3-carbonyl)benzyl)phthalazin-1(2H)-one] | > 100 |  |  |
| O=C(c1cc(Cc2n[nH]c(=O)c3ccccc23)ccc1F)N1CCC2(CCNCC2)CC1 [Compound 17c, 4-(4-Fluoro-3-(3,9-diazaspiro[5.5]undecane-3-carbonyl)benzyl)phthalazin-1(2H)-one] | > 100 | > 100 |  |
| O=C(c1cc(Cc2n[nH]c(=O)c3ccccc23)ccc1F)N1CCC2(CC1)CCN(C(=O)C1CC1)CC2 [Compound 17d, 4-(3-(9-(Cyclopropanecarbonyl)-3,9-diazaspiro[5.5]undecane-3-carbonyl)-4-fluorobenzyl)phthalazin-1(2H)-one] |  |  | cytotoxicity / anti-proliferative activity (in words) [1]: poor cytotoxic properties |
| O=C(c1cc(Cc2n[nH]c(=O)c3ccccc23)ccc1F)N1CCN(C(=O)C2CC2)CC1 [olaparib, reference compound] |  |  | DNA damage (γ-H2AX foci), in words [2]: induced DNA damage in a dose dependent manner |
